Patent EP3325012B1, “CINEOLE-CONTAINING COMPOSITION FOR TREATING NOSE POLYPS” (Maria Clementine Martin Klosterfrau Vertriebsgesellschaft …, priority 2015, dated 2017)

Tests used:
HNSCC-Zelllinien = test: MTT assay, vitality and proliferation of HNSCC cell lines; assay type: cell-based; settings: 1 mM bis 10 mM, 250 Stunden, two cell lines
Protocol: Es wurden weiterführende Untersuchungen durchgeführt zur Analyse des Einflusses von Cineol auf die Vitalität und Proliferation verschiedener permanenter Zelllinien. Hierzu wurden einerseits die zwei HNSCC-Zelllinien und des Weiteren eine Fibroblastenzelllinie verwendet. Diese wurden über einen Zeitraum von 250 Stunden mit verschiedenen Cineol-Konzentrationen kultiviert (1 mM bis 10 mM) und die Vitalität der Zellen wurde jeweils mittels eines MTT-Assays untersucht.

aktivem beta-Catenin = test: Western blot of active beta-catenin in nasal polyp tissue samples; assay type: cell-based, Mensch; settings: 100 µM, 24 Stunden incubation, versus medium controls (Figur 3)
Excerpt: Proben von Nasenpolypen wurden in PBS gewaschen und vorsichtig homogenisiert. Es wurden Zellextrakte hergestellt und unter Verwendung von Lysepuffer 16 ("Human pluripotent stem cell array" (R&D Systems)) solubilisiert. Die Proteinkonzentrationen wurden bestimmt.
Lysate von Geweben wurden durch Erhitzen über einen Zeitraum von 5 Minuten in einfachem SDS-Probenpuffer (Carl Roth GmbH, Karlsruhe, Deutschland) denaturiert. Die Proteinkonzentrationen wurden mittels des Bradford-Tests bestimmt und jeweils 30 µg Gesamtprotein wurden zur SDS-Polyacrylamid-Gel Elektrophorese eingesetzt (Mini-Protean TGX®, Any kD, BioRad, Hercules, CA, USA) und anschließend auf Nitrozellulosemembranen übertragen. Die Übertragung der Proteine wurde mittels Ponceau-Färbung kontrolliert. […]
Um die Beladungsmenge jeder Spur zu bestimmen, wurden die Nitrozellulosemembranen über Nacht bei 4 °C mit einem primären Antikörper der GAPDH (Cell Signaling Technology Inc., Massachusetts, Katalognummer: 14C10) in einer Verdünnung von 1 : 1.000 inkubiert. […] Die Pixeldichten wurden quantifiziert und mittels Fusion FX7® unter Einsatz von Bio-1D Software® dokumentiert. […]

GSK-3 = test: Immunohistochemistry, subcellular (endolysosomal) localisation of GSK-3; assay type: cell-based, Mensch; settings: 100 µM, versus control medium (Figur 4B)
Excerpt: Frische eingefrorene Gewebeschnitte wurden für 10 Minuten in 100 % Methanol fixiert. Nach einer Trocknungszeit von 10 Minuten wurden die Schnitte bei Raumtemperatur mit TBS (RT-TBS) gewaschen. Danach wurden die Gewebeproben zur Inhibition der endogenen Peroxidase 15 Minuten lang in RT-TBS mit 3 % H2O2 inkubiert.
Nach einem Waschschritt mit RT-TBS wurden die Proben in TBS mit 0,3 % Triton X für 15 Minuten permeabilisiert. Die Schnitte wurden in einer 1 : 100-Verdünnung mit Anti-Phospho-GSK-3-alpha/beta-Antikörpern (Cell Signaling Technology Inc., Massachusetts, USA, Katalognummern 5676 und 9331) über Nacht bei 4 °C inkubiert.
Am nächsten Tag wurden die Objektträger mit RT-TBS gewaschen und danach für 20 Minuten bei Raumtemperatur mit einem sekundären Polylink-Antikörper inkubiert. Nach dem Waschen mit RT-TBS wurden die Proben mit Peroxidase-Marker (HRP) (beide DCS Detection line, Innovative Diagnostik-Systeme, Hamburg, Deutschland) inkubiert.
Nach dem Waschen mit RT-PBS wurden die Schnitte in AEC (DCS Chromoline, Innovative Diagnostik-Systeme, Hamburg, Deutschland) inkubiert. Die Reaktion wurde mit RT-TBS gestoppt. Schließlich wurde eine Zellkernfärbung mit Mayer's Haematoxylin durchgeführt. Die Schnitte wurden in wässrigem "Dako Faramount Medium" (Dako North America Inc., Carpinteria, CA, USA) eingebettet. […]

[1] = tested on: Patienten mit Polyposis nasi et sinuum; assay type: in vivo, Mensch
Excerpt: Im Rahmen einer klinischen Anwendung erhielten 22 Patienten nach einer Nasennebenhöhlenoperation zusätzlich zu einer Standardmedikation 1,8-Cineol (Soledum forte®), 3-mal 1 Kapsel, über einen Zeitraum von 3 Monaten. Die präoperativen CT-Bilder wurden nach dem Lund-Mackay-Score bewertet. Die Patienten wurden gebeten, ihre Beschwerden mittels eines Fragebogens (SNOT20 - German adapted version) einzuschätzen. 21 von 22 Patienten beendeten die Therapie wie vorgesehen. Ein Patient berichtete über gastrointestinale Nebenwirkungen und brach die Behandlung mit 1,8-Cineol ab. […] Somit war ein gutes Ansprechen auf die zusätzliche medikamentöse Behandlung mit 1,8-Cineol bei einem tolerablen Nebenwirkungsprofil zu beobachten.

SMILES: CC12CCC(CC1)C(C)(C)O2 [1,8-Cineol, 1,3,3-Trimethyl-2-oxabicyclo[2.2.2]octan]
- Progression und Vitalität von HNSCC (HNSCC-Zelllinien): inhibierender Einfluss
- Expressionslevel von aktivem beta-Catenin (aktivem beta-Catenin): verschwanden aktive beta-Catenin-Proteine fast vollständig
- endolysosomale Lokalisierung von GSK-3 (GSK-3): verringerte endolysosomale Lokalisierung
- SNOT-20-Score ([1]; first orienting evaluation, compared with preoperative results): deutliche Verbesserung
- Rezidivpolyposis ([1]; follow-up examination after 6 months): lediglich bei einem Patienten eine beginnende geringfügige Rezidivpolyposis
- gastrointestinale Nebenwirkungen ([1]; in vivo): Ein Patient
